Data reported in BindingDB's records for doi:10.1021/jm1003705 (The University of Queensland, 2010).

Molecular target: T1, C3a anaphylatoxin chemotactic receptor (Homo sapiens, UniProt Q16581)
T1 sequence (Q16581 whole entry): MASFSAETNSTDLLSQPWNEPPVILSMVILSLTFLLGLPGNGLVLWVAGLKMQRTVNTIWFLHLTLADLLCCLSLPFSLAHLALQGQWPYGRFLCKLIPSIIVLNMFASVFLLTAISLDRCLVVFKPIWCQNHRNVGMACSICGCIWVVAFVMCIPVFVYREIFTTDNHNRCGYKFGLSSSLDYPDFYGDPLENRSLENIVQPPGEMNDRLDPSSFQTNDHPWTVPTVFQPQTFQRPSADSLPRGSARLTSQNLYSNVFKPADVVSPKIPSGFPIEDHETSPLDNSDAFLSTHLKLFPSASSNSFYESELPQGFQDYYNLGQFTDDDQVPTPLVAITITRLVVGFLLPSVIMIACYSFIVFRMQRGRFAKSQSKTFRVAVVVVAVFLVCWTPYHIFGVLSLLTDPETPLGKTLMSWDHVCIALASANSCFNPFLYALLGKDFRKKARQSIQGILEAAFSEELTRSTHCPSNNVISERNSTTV
Assay: Displacement of [125I-C3a] from C3a receptor in human PBMC by scintillation counting

For `NC(N)=NCCC[C@H](NC(=O)COCC(c1ccccc1)c1ccccc1)C(=O)O` [(S)-2-(2-(2,2-diphenylethoxy)acetamido)-5-guanidinopentanoic acid], the IC50 was 125 nM.
